Reference: ChEMBL document CHEMBL3808323, “Synthesis and evaluation of novel benzylphthalazine derivatives as hedgehog signaling pathway inhibitors” (Bioorg Med Chem Lett, 2016)
pIC50: −log10 of the molar value. Active and inactive are the calls of the source. No cut-off for these calls is given here.

Tests used:
[1] = Inhibition of hedgehog signaling (unknown origin) expressed in mouse NIH/3T3 cells by Gli-dual-luciferase reporter assay; type: cell-based; conditions: NIH3T3
[2] = Cmax in Sprague-Dawley rat plasma at 10 mg/kg, po; type: ADME, organism-based; design: dose 10 mg/kg, route oral
[3] = Tmax in Sprague-Dawley rat plasma at 10 mg/kg, po; type: ADME, organism-based
[4] = Oral bioavailability in Sprague-Dawley rat plasma at 10 mg/kg; type: ADME, organism-based
Medulloblastoma cell = experiment: Antitumor activity against mouse ptch+/- and p53-/- medulloblastoma cells allografted in athymic nude mouse assessed as tumor growth inhibition at 40 mg/kg, bid administered via oral gavage measured twice per week by microcaliper; type: functional, organism-based
Mus musculus = experiment: Toxicity in athymic nude mouse allografted with mouse ptch+/- and p53-/- medulloblastoma cells assessed as body weight loss at 40 mg/kg, bid administered via oral gavage; type: organism-based; conditions: in vivo
[5] = AUC (0 to infinity) in Sprague-Dawley rat plasma at 10 mg/kg, po; type: ADME, organism-based; design: dose 10 mg/kg, route oral, time infinity
[6] = Inhibition of cell proliferation in mouse ptch+/- and p53-/- medulloblastoma cells after 36 hrs by Brdu assay; type: functional
[7] = AUC (0 to infinity) in Sprague-Dawley rat plasma at 2 mg/kg, iv; type: ADME, organism-based; design: dose 2 mg/kg, time infinity, route intravenous
[8] = Systemic clearance in Sprague-Dawley rat plasma at 2 mg/kg, iv; type: ADME, organism-based
[9] = Volume of distribution at steady state in Sprague-Dawley rat plasma at 2 mg/kg, iv; type: ADME, organism-based; conditions: read-out: Vdss
[10] = Half life in Sprague-Dawley rat plasma at 2 mg/kg, iv; type: ADME, organism-based

Row | Compound | pIC50 [1] | also measured
1 | CC(C)(O)c1ccc(OC2CN(c3nnc(Cc4ccccc4)c4ccccc34)C2)nc1 | 6.19 | –
2 | CC(=O)c1ccc(NC2CCN(c3nnc(Cc4ccccc4)c4ccccc34)CC2)nc1 | 8.61 | –
3 | CC(C)(O)c1ccc(NC2CCN(c3nnc(Cc4ccccc4)c4ccccc34)CC2)nc1 | 9.24 | Cmax [2]: 950 nM; Tmax [3]: 2 h; bioavailability [4]: 40.1%; TGI (Medulloblastoma cell): Active; Activity (Mus musculus): Non-toxic; AUC(0-inf) [5]: 3.28 µM·h; pIC50 [6]: 7.42; AUC(0-inf) [7]: 1.64 µM·h; clearance [8]: 42.1 mL/min/kg; Vd [9]: 2.16 L/kg; half-life [10]: 1.03 h
4 | CC(C)(O)c1ccc(N2CCN(c3nnc(Cc4ccccc4)c4ccccc34)CC2)nc1 | 8.15 | TGI (Medulloblastoma cell): Active; pIC50 [6]: 7.35
5 | CS(=O)(=O)c1ccc(C(=O)Nc2ccc(Cl)c(-c3ccccn3)c2)c(Cl)c1 [VISMODEGIB] | 8.64 | –
6 | CN(c1ccc(C(C)(C)O)cn1)C1CCN(c2nnc(Cc3ccccc3)c3ccccc23)CC1 | 8.18 | –
7 | CCOC(=O)c1ccc(N2CCC(Nc3nnc(Cc4ccccc4)c4ccccc34)C2)nc1 (racemic) | 7.34 | –
8 | CC(=O)c1ccc(N(C)C2CCN(c3nnc(Cc4ccccc4)c4ccccc34)CC2)nc1 | < 6.00 | –
9 | CC(C)(O)c1ccc(NC2CCCN(c3nnc(Cc4ccccc4)c4ccccc34)C2)nc1 (racemic) | < 6.00 | –
10 | CCOC(=O)c1ccc(NC2CCCN(c3nnc(Cc4ccccc4)c4ccccc34)C2)nc1 (racemic) | < 6.00 | –
11 | CC(C)(O)c1ccc(N2CC3(C2)CN(c2nnc(Cc4ccccc4)c4ccccc24)C3)nc1 | < 6.00 | –
12 | CC(C)(O)c1ccc(N2CCC(Nc3nnc(Cc4ccccc4)c4ccccc34)C2)nc1 (racemic) | 8.02 | –
13 | CCC(O)(CC)c1ccc(NC2CCN(c3nnc(Cc4ccccc4)c4ccccc34)CC2)nc1 | 7.99 | –
14 | CCOC(=O)c1ccc(NC2CCN(c3nnc(Cc4ccccc4)c4ccccc34)C2)nc1 (racemic) | 8.06 | –
15 | CCC(O)(CC)c1ccc(NC2CCN(c3nnc(Cc4ccccc4)c4ccccc34)C2)nc1 (racemic) | 8.53 | –
16 | CC(C)(O)c1ccc(NC2CCN(c3nnc(Cc4ccccc4)c4ccccc34)C2)nc1 (racemic) | 8.48 | –
17 | CCC(O)(CC)c1ccc(N2CCC(Nc3nnc(Cc4ccccc4)c4ccccc34)C2)nc1 (racemic) | 8.41 | –
